Experimental findings from patent US20190030009A1, “COMPOUNDS AND COMPOSITIONS FOR THE TREATMENT OF CRYPTOSPORIDIOSIS” (Novartis AG, priority 2016, published 2019) are described below.

By IC50 is commonly meant the concentration that inhibits the measured activity by half. One may read the EC50 as the concentration needed to bring the measured effect to its halfway point.

Some results are limits rather than exact numbers.

The test system of one assay is C. parvum. Briefly: High content imaging assay, C. parvum infected HCT-8 cells. Type of assay: cell-based. To be noted: Cryptosporidium parvum, percentage of infected HCT-8 cells, 48 hours treatment, read-out: Cp HCl IC50. The method, then:
(§1) Human ileocecal colorectal adenocarcinoma cells (HCT-8 [HRT-18] ATCC, CCL-34) were maintained in T-175 flasks (Corning, 431080) in complete growth medium (RPMI-1640 medium (Gibco, 11875) supplemented with 10% heat-inactivated horse serum (Gibco, 26050), 1×MEM non-essential amino acids (Gibco, 11140), 10 mM HEPES (Gibco, 15630), 100 units/mL penicillin, and 100 units/mL streptomycin) at 37° C. and 5% CO2 in a humidified incubator. Cultures were passaged twice weekly using 10 mL of 1×Phosphate-Buffered Saline (PBS) without Ca^2+ and Mg^2+ (Gibco, 20012) for washing and 3-5 mL per T-175 flask of TrypLE Express Enzyme (Gibco, 12604) for dissociation of adherent cells.
Cryptosporidium parvum oocysts purchased from the Sterling Laboratory, University of Arizona (Iowa isolate) were purified from infected calf feces using discontinuous sucrose and cesium chloride centrifugation gradients and stored in PBS solution containing 0.01% Tween 20, 100 units/mL penicillin and 100 units/mL gentamicin.
(§2) Excystation and infection protocols were developed following established methods with some modifications (Gut & Nelson, 1999, Upton et aL, 1995, Bessoff et aL, 2013). Briefly, oocysts were primed in 1 mL of 10 mM hydrochloric acid in 1× Hank's Balanced Salt Solution (HBSS) (Gibco, 14025) for 10 minutes with agitation at 1000 rpm, 37° C. on an Eppendorf thermomixer, then washed twice with 1 mL of room temperature non-acidic 1× HBSS by centrifugation at 13,000 rpm for 3 minutes at 25° C. Primed oocysts were further excysted at a concentration of 1×10^6 oocysts/μL in parasite infection medium consisting of a pre-warmed and pre-gassed 1:1 formulation of Leibovitz's L-15 medium (Gibco, 11415) and UltraCULTURE medium (Lonza, 12-725F) supplemented with 2 mM sodium taurocholate (Sigma, 86339-1), 10% heat-inactivated horse serum, and 200 μM L-ascorbic acid (Sigma, 95210) at 25° C. for 10 minutes. HCT-8 monolayer cells were infected with excysted cryptosporidium at a specified multiplicity of infection (MOI). All dilutions for subsequent assays were performed in parasite infection medium without sodium taurocholate. Pre-excysted oocysts were enumerated microscopically using a C-Chip disposable hemocytometer (NanoEnTek, DHC-N01).
(§3) Compound powders were dissolved in neat DMSO (Fisher, D4121) to 10 mM and stored at 4° C. prior to dilution into source plates. Dilutions were carried out using a Microlab STAR liquid handler (Hamilton) to obtain compound source plates containing the ten-point or eight-point three fold dilutions starting from 10 mM in duplicates. Source plates were stored at 4° C. prior to spotting into assay plates. Before administration, all compound source plates were equilibrated to room temperature. A specified volume of compounds from source plate were spotted to assay plate using an Echo Acoustic liquid handler (LABCYTE, 550) so that the final DMSO concentration was less than 0.5%. Each assay plate a specified number of DMSO-treated negative control wells and a well-studied potent active compound at 100 nM as positive control. As a quality control, all positive and negative-control wells were used to calculate a Z′-value and signal to noise ratio (S:N) for each plate.
Imaging assays were developed following established Cryptosporidium spp labeling and in vitro infection models with some modifications (Bessoff et aL, 2013, Gut & Nelson, 1999). Briefly, 2×10^4 HCT-8 cells per well were seeded into 384-well, flat black clear-bottom OPERA assay plates (Greiner, 789071-G) at 20 μL per well in complete growth medium using a Multidrop Combi liquid handler (ThermoScientific, 5840300) and standard tube dispensing cassette (ThermoScientific, 24072670) and incubated for 24 hours at 37° C. The HCT-8 cells were infected with 10 μL per well of 1×10^4 excysted C. parvum oocysts (host to parasite MOI of 1:0.5) or 10 μL per well of 4×10^4 excysted C. hominis oocysts (MOI 1:2) in parasite infection medium using the Multidrop and incubated at 37° C. […]
`CCN(C(=O)c1ccn2ncc(-c3ccc(C(=O)NC)cc3)c2c1)c1ccc(C#N)cn1` [Example 90]: the IC50 came out at 52 nM.
Still for that read-out and setting: the figure for `CNC(=O)c1ccc(-c2cnn3ccc(C(=O)N(NC)c4ccc(C#N)cc4)cc23)cn1` [Example 92] is 94 nM; for `CNC(=O)c1ccc(-c2cnn3ccc(N(C)C(=O)c4ccc(C#N)cn4)cc23)cc1` [Example 94] it is 123 nM.
The same measure, in the same setting: the same measure for `CCN(C(=O)c1ccn2ncc(-c3ccc(C(=O)NC)cc3)c2c1)c1ccc(C(F)(F)F)cn1` [Example 96]: 24 nM; for `CNC(=O)c1ccc(-c2cnn3ccc(C(=O)N(c4ccc(Cl)cn4)C4CC4)cc23)cc1` [Example 124]: 60 nM; for `CCNC(=O)c1ccc(-c2cnn3ccc(C(=O)N(c4ccc(C#N)cn4)C4CC4)cc23)cc1` [Example 127]: 62 nM.
The same measure, in the same setting: the figure for `CNC(=O)c1ccc(-c2cnn3ccc(C(=O)N(c4ccc(C#N)c(OC)n4)C4CC4)cc23)cc1` [Example 149] is 32 nM; for `CCN(C(=O)c1ccn2ncc(-c3ccc(C(=O)NC)nc3)c2c1)c1ccc(C#N)cn1` [Example 150] it is 382 nM; for `CNC(=O)c1ccc(-c2cnn3ccc(C(=O)N(c4ccc(C(F)(F)F)cn4)C(C)C)cc23)cc1` [Example 153] it is 11 nM.
In the case of `CNC(=O)c1ccc(-c2cnn3ccc(C(=O)N(c4ccc(C(F)(F)F)cn4)C4CCC4)cc23)cc1` [Example 160], the IC50 was found to be 29 nM.

A further assay has as its system Cryptosporidium hominis. The assay can be described thus: Cytopathic effect (CPE) based assay, C. hominis infected HCT-8 cells. As to conditions: HCT-8 host cell viability (CellTiter-Glo), 48 hours treatment, read-out: Ch CPE EC50. The method, then: as §1
Cryptosporidium hominis oocysts were purchased from the Tufts University Cummings School of Veterinary Medicine (courtesy of Dr. Saul Tzipori). C. hominis oocysts were purified from infected gnotobiotic piglet feces and stored in PBS solution containing 0.01% Tween-20, 100 units/mL penicillin and 100 units/mL gentamicin. C. parvum and C. hominis oocysts less than three months old from the date of shedding were used in infection experiments.
as §2, §3
Cryptosporidium spp are obligate-intracellular parasites that infect intestinal epithelial cells and the host cell is killed upon parasite egress. […] The loss of epithelial cells is due to both rapid parasite invasion/multiplication/egress and also pro-inflammatory immune response (Adams et al., 1994, Griffiths et al., 1994). We have observed a consistent cytopathic effect (CPE) in HCT-8 cells with C. spp infection the loss of viability of the host cells using CellTiter-Glo reagent.
Confluent HCT-8 cells in T-175 flasks were directly infected with excysted oocysts at an MOI (host to parasite) of 1:2 for C. parvum and 1:4 for C. hominis. […]
(Protection from cytopathic effect is a common read-out in antiviral testing.)
On to `CNC(=O)c1ccc(-c2cnn3ccc(C(=O)N(c4ccc(C#N)cn4)C(C)C)cc23)cc1` [Example 91], for which the EC50 was found to be 139 nM.
Still for that read-out and setting: the figure for `CNC(=O)c1ccc(-c2cnn3ccc(N(C)C(=O)c4ccc(C#N)cn4)cc23)cc1` [Example 94] is 456 nM; for `CNC(=O)c1ccc(-c2cnn3ccc(C(=O)N(c4ccc(C#N)cn4)C4CCC4)cc23)cc1` [Example 112] it is 351 nM.
Still for that read-out and setting: the same measure for `N#Cc1ccc(N(C(=O)c2ccn3ncc(-c4ccc(C(N)=O)cc4)c3c2)C2CC2)nc1` [Example 120]: 276 nM.
The same measure, in the same setting: the same measure for `CC(C)NC(=O)c1ccc(-c2cnn3ccc(C(=O)N(c4ccc(C#N)cn4)C4CC4)cc23)cc1` [Example 121]: greater than 20000 nM; for `N#Cc1ccc(N(C(=O)c2ccn3ncc(-c4ccc(C(=O)NC5CC5)cc4)c3c2)C2CC2)nc1` [Example 123]: 3150 nM; for `CCNC(=O)c1ccc(-c2cnn3ccc(C(=O)N(c4ccc(C#N)cn4)C4CC4)cc23)cc1` [Example 127]: 71 nM.
For `N#Cc1ccc(N(C(=O)c2ccn3ncc(-c4ccc(C(=O)NC5COC5)cc4)c3c2)C2CC2)nc1` [Example 131], the EC50 turned out to be 4110 nM.
Same read-out and setting: the same measure for `CNC(=O)c1ccc(-c2cnn3ccc(C(=O)N(c4ccc(C(F)(F)F)cn4)C(C)C)cc23)cc1` [Example 153]: 70 nM.
